{
  "source": "patent US20100087546A1",
  "about": "“USE OF DIMETHYL SULFONE (MSM) TO REDUCE HO[…]” (BIOGENIC INNOVATIONS, LLC, priority 2005, published 2010)",
  "format_in_all_cases": "in vivo, human",
  "key": {"[1]": {"system": "osteoarthritis pain of the knee", "test": "12-week randomized, double-blind, placebo-controlled trial in osteoarthritis of the knee (WOMAC pain and physical function)", "details": "3 g twice a day (6 g/day) for 12 weeks, oral, OA of the knee, versus placebo", "description": "(§1) In 2005, Applicant commissioned a study to determine the efficacy of dimethyl sulfone in the treatment of pain and physical function impairment due to osteoarthritis. The results of the study are published in Kim, et al, Efficacy of methylsulfonylmethane (MSM) in osteoarthritis pain of the knee: a pilot clinical trial. OsteoArthritis and Cartilage, herein incorporated by reference in its entirety. Patients were given dosage of 6 g of dimethyl sulfone (Distilled MSM microprill (OptiMSM®, Cardinal Nutrition, Vancouver, Wash.)) per day in a stepwise approach. In week 1, dosages started with 2 g/day in two divided doses for 3 days, and then increased to 4 g/day for 4 days. Week 2, increased to 6 g/day. In the control group, a placebo was administered that consisted of inert ingredients and that was indistinguishable in color, size and taste from the dimethyl sulfone.\nIn a study directed by Applicant or its related affiliate, and as reported in Kim et al (published in 2006), herein incorporated by reference in its entirety, the effects of dimethyl sulfone on OA of the knee were evaluated. Qualified patients (n=50) were as-signed to MSM (n=25) or placebo (n=25) in a 12-week randomized, double-blind, placebo-controlled trial using computer-generated random numbers (FIG. 1).\nAt week 1, subjects were administered 2 g/day in two divided doses for 3 days, and then increased to 4 g/day for 4 days. […]"}, "homocysteine": {"system": "homocysteine", "test": "Serum homocysteine measured at baseline and 12 weeks in the 2005 osteoarthritis study", "details": "6 g/day, baseline versus 12 weeks, FIG. 2", "description": "as §1\n(§2) During the 2005 osteoarthritis study, described above, dimethyl sulfone's potential activities were also evaluated. Serum homocysteine, high sensitive C-reactive protein (CRP), erythrocyte sedimentation rate (ESR), and urine malondialdehyde (MDA) were measured at baseline and 12 weeks.\nSince dimethyl sulfone is a putative methyl donor, it was believed that dimethyl sulfone may act as a co-factor in reducing homocysteine levels. […]"}, "malondialdehyde (MDA)": {"system": "malondialdehyde (MDA)", "test": "Urine malondialdehyde (MDA) measured at baseline and 12 weeks in the 2005 osteoarthritis study", "details": "6 g/day, baseline versus 12 weeks", "description": "as §1, §2\nThe combined decreases in homocysteine and urine MDA during the 2005 osteoarthritis study supports the role of dimethyl sulfone in metabolic processes requiring methylation, such as antioxidant capacities. […]"}, "[2]": {"test": "2008 acute oral dosing study, pharmacokinetic blood draws (serum dimethyl sulfone levels)", "method": "In a study directed by Applicant or its related affiliate in 2008, six participants received three doses of dimethyl sulfone at three acute test visits spaced one week apart. Subjects were monitored for four hours post dose, with pharmacokinetic (PK) and phamacodynamic blood draws at 0, 45, 90, 135, 180 and 240 minutes post dosing. Subjects also provided a 24-hour post-dose urine collection for assay of dimethyl sulfone and sulfate levels.\nRough estimates have been obtained for the half times of absorption (½ hour) and elimination (8 hours)."}, "[3]": {"details": "blood draws 0-240 minutes post dosing"}, "[4]": {"details": "six participants, rough estimate"}},
  "note": "“Also recorded” adds a separate entry of the source.",
  "data": [
    {"substance": "dimethyl sulfone", "values": [
      {"measurement": "symptoms of pain and physical function (WOMAC subscales)", "setting": "[1]", "value": "produced improvement in two of the three WOMAC subscales, pain and physical function"},
      {"measurement": "symptoms of pain and physical function (WOMAC subscales)", "setting": "[1]; listed as dimethyl sulfone", "value": "improved symptoms of pain and physical function"},
      {"measurement": "serum homocysteine levels", "setting": "homocysteine", "value": "significantly decreased; also recorded: decreases"},
      {"measurement": "urine MDA", "setting": "malondialdehyde (MDA)", "value": "decreases"},
      {"measurement": "absorption from the upper gastrointestinal tract (serum level pattern)", "setting": "[2]; [3]", "value": "fairly rapid absorption from the upper gastrointestinal tract (within an hour)"},
      {"measurement": "elimination from the bloodstream (serum level pattern)", "setting": "[2]; [3]", "value": "slower elimination from the bloodstream (over the course of one or two days)"},
      {"measurement": "half time of absorption", "setting": "[2]; [4]", "value": "½"},
      {"measurement": "half time of elimination", "setting": "[2]; [4]", "value": "~8", "unit": "h"}
    ]}
  ]
}
